Results reported in publication PMC6225253, “Chemical Constituents and Antidepressant-Like Effects in Ovariectomized Mice of the Ethanol Extract of Alternanthera philoxeroides” (Molecules : A Journal of Synthetic Chemistry and Natural …, 2018).

Legend:
Type in all cases: in vivo
[1] = test system: HPA-axis (serum corticosterone); assay: Serum corticosterone level of OVX mice (ELISA); details: extract 250 and 500 mg/kg/day, E2 1 µg/kg/day, p < 0.001 vs vehicle-treated OVX group
Procedure: The serum corticosterone was evaluated to clarify the feedback mechanism in the HPA-axis on the estrogen deprivation in the OVX mice. […] Serum corticosterone level was determined by corticosterone (CORT) ELISA kit (Assaypro LLC. St. Charles, MO, USA) and corticosterone was used as a standard, according to the previously described procedure. The serum of the sample 25 µL was added in 96-well microplates of ELISA kit and immediately added 25 µL of biotinylated corticosterone to each well. The 96-well microplates were gently mixed and incubated for 2 h at room temperature and then washed with 200 µL of wash buffer for five times and added 50 µL of streptavidin-peroxidase conjugate into each well before incubation for 30 minutes. Each well was washed with 200 µL of wash buffer for five times again and then added 50 µL of chromogen substrate and incubated for 20 minutes. The reaction was stopped by adding 50 µL of stop solution. The absorbance was immediately measured at 450 nm.

[2] = test system: ovariectomized (OVX) mice; assay: Forced swimming test (FST) in ovariectomized mice; details: oral once daily 8 weeks, E2 1 μg/kg/day, extract 250 and 500 mg/kg/day, vs vehicle-treated OVX group
Procedure: (§1) The depressive-like symptoms of the OVX mice were evaluated using FST and TST (Figure 2A,B).
(§2) After a 3-day recovery period, the animals were divided into five groups: (1) sham, (2) ovariectomy (OVX), (3) ovariectomy + 1 μg/kg 17β-estradiol, (OVX + E2), (4) ovariectomy + 250 mg/kg of A. philoxeroides extract (OVX + AP250), and (5) ovariectomy + 500 mg/kg of A. philoxeroides extract (OVX + AP500). The sham and OVX control groups were orally administered distilled water 0.2 mL per mouse once daily for 8 weeks. 17β-Estradiol and A. philoxeroides extract were suspended in distilled water and orally administered 0.2 mL per mouse once daily for 8 weeks. To assess the effects of 17β-estradiol and A. philoxeroides extract in OVX mice, the drugs were administered 1 h before the behavioral tests. At the end of behavioral studies, the mice were anesthetized with pentobarbital sodium (Nembutal®) 60 mg/kg (i.p.). Thereafter, blood sera (1 mL) were collected by cardiac puncture and centrifuged (3000 rpm; 4 °C) for 15 min [53]. 17β-Estradiol and corticosterone levels were evaluated in the serum. […] Hippocampus and frontal cortex were collected for semi-quantitative reverse transcription-polymerase chain reaction (RT-PCR) assay. […]
The procedure was adapted from Vogel et al.. […] During a 6 min period, the total immobility time was recorded for the last 4 min.

[3] = test system: ovariectomized (OVX) mice; assay: Tail suspension test (TST) in ovariectomized mice; details: oral once daily 8 weeks, E2 1 μg/kg/day, extract 250 and 500 mg/kg/day, vs vehicle-treated OVX group
Procedure: as §1, §2
The tail suspension test was used to assess the antidepressant effects of A. philoxeroides extract. […] The animal behavior was video-recorded for 6 min. […]

uterus of OVX mice = assay: Uterine weight and volume of OVX mice
Procedure: (§3) The levels of serum 17β-estradiol were evaluated (after decapitation) by electrochemiluminescence immunoassay. […] The weight and volume of the uterus were determined as an index of estrogen receptors activation.
After a 3-day recovery period, the animals were divided into five groups: (1) sham, (2) ovariectomy (OVX), (3) ovariectomy + 1 μg/kg 17β-estradiol, (OVX + E2), (4) ovariectomy + 250 mg/kg of A. philoxeroides extract (OVX + AP250), and (5) ovariectomy + 500 mg/kg of A. philoxeroides extract (OVX + AP500). The sham and OVX control groups were orally administered distilled water 0.2 mL per mouse once daily for 8 weeks. 17β-Estradiol and A. philoxeroides extract were suspended in distilled water and orally administered 0.2 mL per mouse once daily for 8 weeks. To assess the effects of 17β-estradiol and A. philoxeroides extract in OVX mice, the drugs were administered 1 h before the behavioral tests. At the end of behavioral studies, the mice were anesthetized with pentobarbital sodium (Nembutal®) 60 mg/kg (i.p.). Thereafter, blood sera (1 mL) were collected by cardiac puncture and centrifuged (3000 rpm; 4 °C) for 15 min [53]. 17β-Estradiol and corticosterone levels were evaluated in the serum. Uteri were removed, trimmed of connective tissue and fat for measuring and weighing. Hippocampus and frontal cortex were collected for semi-quantitative reverse transcription-polymerase chain reaction (RT-PCR) assay. Both serum and all tissues were collected rapidly and kept at −80 °C for all experiments.

[4] = test system: ovariectomized (OVX) mice; assay: Serum 17β-estradiol level of OVX mice (electrochemiluminescence immunoassay); details: OVX mice + E2 1 μg/kg/day, oral, 8 weeks; mean ± SEM, n = 3–4
Procedure: as §3, §2

CREB and BDNF mRNAs = assay: CREB and BDNF mRNA expression in hippocampus and frontal cortex (semi-quantitative RT-PCR); details: hippocampus and frontal cortex of OVX mice; extract 250 and 500 mg/kg/day, E2 1 μg/kg/day
Text: After completing the behavioral analysis, mice were decapitated under anesthesia. Mouse cyclic AMP response element binding protein (CREB), brain-derived neurotrophic factor (BDNF), and β-actin mRNAs expression in hippocampus and frontal cortex were semi-quantified by RT-PCR as described previously. Total RNA was extracted from the tissues with TRIzol® (Thermo Fisher Scientific Inc., CA, USA) according to the manufacturer’s instructions. First-strand cDNA was synthesized with oligo (dT) primers and SuperScript III reverse transcriptase (Thermo Fischer Scientific Inc., California, USA). PCR amplification was carried out using gene-specific PCR primer sets as follows: β-actin: 5′-AACGGTCTCACGTCAGTGTA-3′ (sense) and 5′-GTGACAGCATTGCTTCTGTG-3′ (antisense); BDNF: 5′-GACAAGGCAACTTGGCCTAC-3′ (sense) and 5′-CCTGTCACACACGCTCAGCTC-3′ (antisense); and CREB: 5′-GAGGCAGCTTGAACAACAAC-3′ (sense) and 5′-TACCCAGGGAGGAGCAATAC-3′ (antisense). […] The amplified products were visualized, photographed under ultraviolet and semi-quantified by GeneSnap software (GSL Biotech, Chicago, IL, USA) and ImageJ software (National Institutes of Health, Bethesda, MD, USA). The relative mRNA expression (BDNF/β-actin and CREB/β-actin) in each treatment were calculated by comparing with the sham group.

[5] = OVX mice + E2 1 μg/kg/day, oral, 8 weeks, mean ± SEM

C[C@]12CC[C@@H]3c4ccc(O)cc4CC[C@H]3[C@@H]1CC[C@@H]2O [17β-estradiol]
Serum corticosterone level (effect on HPA-axis) [1]: decreasing the serum corticosterone level
Immobility time in FST [2]: significantly shorter immobility time
Immobility time in TST [3]: significantly shorter immobility time
Uterine Volume (uterus of OVX mice; [5]): 2.305 ± 0.02 ** cm^3/kg
Uterine Weight (uterus of OVX mice; [5]): 3.055 ± 0.04 g/kg
Effect on uterus weight and volume (uterus of OVX mice; OVX mice, extract 250 and 500 mg/kg/day, E2 1 µg/kg/day, vs vehicle-treated OVX): statistically significant effects on uterus weight and volume
17β-estradiol (serum) [4]: 24.81 ± 1.11 pg/mL
CREB and BDNF mRNA expression levels (CREB and BDNF mRNAs): reversible by 17β-estradiol treatment
